Data as given in patent US12459951B2, “Compounds that interact with RAS superfamily proteins for treatment of cancers, inflammatory diseases, rasopathies, and fibrotic disease” (SHY Therapeutics, LLC, priority 2022, dated 2025).

What follows are compounds tested on Smad2/Smad3 phosphorylation (assay: Phospho-Smad2/3 Inhibition Assay (western blot), Panc-1). Details: at 10 μM, Panc-1 pancreatic cancer cell line; starred symbols = activation.
Format: cell-based, human
Method: Protocol for Phospho-Smad2/3 Inhibition Assay
This assay is referred to as the “Phospho-Smad2/3 Inhibition Assay” throughout this application.
Cell lines: Human tumor-derived pancreatic cancer cell line Panc-1 (expressing KRas G12D mutant) and mouse muscle myoblast C2C12 were purchased from American Type Culture Collection and grown in complete DMEM-High Glucose, supplemented with penicillin (100 U/mL), streptomycin (100 μg/mL), and 10% heat-inactivated FBS at 37° C. in a humidified incubator with 5% CO2.
Method: Cells were plated at 350000 cells/well density in a 12-well plate, allowed 3 hours to adhere to the plate, then starved in the appropriate medium in the presence of 0.5% FBS overnight. The small molecules to be tested were added to the cells in the final concentration of 10 μM in the presence of 0.3% DMSO for 3 hours incubation at 37° C. For IC50 value determination, serial dilutions of compounds were added to cells under the same conditions. Next, Panc-1 cells were stimulated with 10 ng/ml TGF-b1 for 1 hour, and C2C12 cells were stimulated with 10 ng/ml TGF-b1 for 20 minutes (recombinant human TGF-b1, R&D Systems). After stimulation cells were lysed with lysis buffer containing 1% Triton X-100, EDTA, and Halt™ Protease & Phosphatase Inhibitor Cocktail (Thermo Scientific). Protein concentration was assessed by BCA protein assay (Thermo Scientific). Phosphorylation level of Smad2/Smad3 was determined by western blot.
Western blot protocol: Equal amounts of protein (15-50 μg) were separated by SDS-PAGE and transferred to nitrocellulose membranes (Invitrogen by Thermo Fisher Scientific). The membrane was stained with Ponceau S Stain (Boston BioProducts) to verify uniform protein loading. Membranes were blocked with 10% milk and phosphorylation levels of Smad2/Smad3 were assessed by incubating overnight at 4° C. with the following antibodies: Phospho-Smad2 (Ser465/467) and Phosph-Smad3 (Ser423/425), both from Cell Signaling Technology. Then the membranes were incubated with HRP-conjugated secondary antibody (Jackson Immunoresearch, West Grove, PA). Bands were incubated in Amersham ECL Prime Western Blotting Detection Reagent (GE Healthcare) and visualized using the ChemiDoc MP imaging system (Bio-Rad).

SMILES	% inh of Smad2/3 phosphorylation in Panc-1
COc1ccnc(Nc2nc(-c3nccn3C)nn3cc(-c4cccnc4)c(-c4cccnc4)c23)c1 [Compound 169, N-(4-methoxypyridin-2-yl)-2-(1-methyl-1H-imidazol-2-yl)-5,6-di(pyridin-3-yl)pyrrolo[2,1-f][1,2,4]triazin-4-amine]	C (C = 46-75% inhibition)
CO[C@H]1CC[C@@H](Nc2nc(-c3nccn3C)nn3cc(-c4ccn(C)n4)c(C)c23)C1 (racemic) [Compound 133, rac N-((1R,3S)-3-Methoxycyclopentyl)-5-methyl-2-(1-methyl-1H-imidazol-2-yl)-6-(1-methyl-1H-pyrazol-3-yl)pyrrolo[2,1-f][1,2,4]triazin-4-amine]	A (A = 1-25% inhibition)
COc1cc(Nc2nc(-c3nccn3C)nn3cc(-c4cccnc4)c(-c4ccccn4)c23)ncn1 [Compound 167, N-(6-Methoxypyrimidin-4-yl)-2-(1-methyl-1H-imidazol-2-yl)-5-(pyridin-2-yl)-6-(pyridin-3-yl)pyrrolo[2,1-f][1,2,4]triazin-4-amine]	0 (0 = 0% inhibition)
COc1ccnc(Nc2nc(-c3nccn3C)nn3cc(-c4cnn(C(C)C)c4)c(C)c23)c1 [Compound 165, 6-(1-Isopropyl-1H-pyrazol-4-yl)-N-(4-methoxypyridin-2-yl)-5-methyl-2-(1-methyl-1H-imidazol-2-yl)pyrrolo[2,1-f][1,2,4]triazin-4-amine]	B* (B* = 26-45% activation)
CO[C@@H]1CC[C@@H](Nc2nc(-c3nccn3C)nn3cc(-c4ccn(C)n4)c(C)c23)C1 (racemic) [Compound 132, rac N-((1R,3R)-3-Methoxycyclopentyl)-5-methyl-2-(1-methyl-1H-imidazol-2-yl)-6-(1-methyl-1H-pyrazol-3-yl)pyrrolo[2,1-f][1,2,4]triazin-4-amine]	A* (A* = 1-25% activation)
CCc1nc(Nc2nc(-c3nccn3C)nn3cc(-c4ccn(C)n4)c(C)c23)nn1C [Compound 108, N-(5-Ethyl-1-methyl-1H-1,2,4-triazol-3-yl)-5-methyl-2-(1-methyl-1H-imidazol-2-yl)-6-(1-methyl-1H-pyrazol-3-yl)pyrrolo[2,1-f][1,2,4]triazin-4-amine]	D* (D* = 76-100% activation)
COc1cncnc1Nc1nc(-c2nccn2C)nn2cc(-c3ccn(C)n3)c(C)c12 [Compound 107, N-(5-Methoxypyrimidin-4-yl)-5-methyl-2-(1-methyl-1H-imidazol-2-yl)-6-(1-methyl-1H-pyrazol-3-yl)pyrrolo[2,1-f][1,2,4]triazin-4-amine]	A (A = 1-25% inhibition)
CO[C@H]1C[C@H](Nc2nc(-c3nccn3C)nn3cc(-c4cccnc4)c(C)c23)C1 [Compound 151, N-((1r,3r)-3-Methoxycyclobutyl)-5-methyl-2-(1-methyl-1H-imidazol-2-yl)-6-(pyridin-3-yl)pyrrolo[2,1-f][1,2,4]triazin-4-amine]	A (A = 1-25% inhibition)
Cc1c(-c2ccn(C)n2)cn2nc(-c3nccn3C)nc(Nc3nccn3C)c12 [Compound 106, 5-Methyl-N,2-bis(1-methyl-1H-imidazol-2-yl)-6-(1-methyl-1H-pyrazol-3-yl)pyrrolo[2,1-f][1,2,4]triazin-4-amine]	D* (D* = 76-100% activation)
CO[C@H]1C[C@@H](Nc2nc(-c3nccn3C)nn3cc(-c4cccnc4)c(C)c23)C1 [Compound 153, N-((1s,3s)-3-methoxy-cyclobutyl)-5-methyl-2-(1-methyl-1H-imidazol-2-yl)-6-(pyridin-3-yl)pyrrolo[2,1-f][1,2,4]triazin-4-amine]	C (C = 46-75% inhibition)
CO[C@@H]1CC[C@@H](Nc2nc(-c3nccn3C)nn3cc(-c4cccnc4)c(C)c23)C1 (racemic) [Compound 154, rac N-((1R,3R)-3-methoxy-cyclopentyl)-5-methyl-2-(1-methyl-1H-imidazol-2-yl)-6-(pyridin-3-yl)pyrrolo[2,1-f][1,2,4]triazin-4-amine]	C (C = 46-75% inhibition)
Cc1c(-c2ccn(C(C)C)n2)cn2nc(-c3nccn3C)nc(Nc3cc(OCCO)ncn3)c12 [Compound 97, 2-((6-((6-(1-Isopropyl-1H-pyrazol-3-yl)-5-methyl-2-(1-methyl-1H-imidazol-2-yl)pyrrolo[2,1-f][1,2,4]triazin-4-yl)amino)pyrimidin-4-yl)oxy) ethan-1-ol]	D (D = 76-100% inhibition)
Cc1c(-c2ccn(C(C)C)n2)cn2nc(-c3nccn3C)nc(Nc3cc(OCCN(C)C)ncn3)c12 [Compound 123, N-(6-(2-(Dimethylamino)ethoxy)pyrimidin-4-yl)-6-(1-isopropyl-1H-pyrazol-3-yl)-5-methyl-2-(1-methyl-1H-imidazol-2-yl)pyrrolo[2,1-f][1,2,4]triazin-4-amine]	B (B = 26-45% inhibition)
Cc1c(-c2ccn(C)n2)cn2nc(-c3nccn3C)nc(Nc3nccc(OCCN(C)C)n3)c12 [Compound 105, N-(4-(2-(Dimethylamino)ethoxy)pyrimidin-2-yl)-5-methyl-2-(1-methyl-1H-imidazol-2-yl)-6-(1-methyl-1H-pyrazol-3-yl)pyrrolo[2,1-f][1,2,4]triazin-4-amine]	A (A = 1-25% inhibition)
CO[C@H]1CC[C@@H](Nc2nc(-c3ccccn3)nn3cc(-c4ccn(C(C)C)n4)c(C)c23)C1 (racemic) [Compound 9, rac 6-(1-Isopropyl-1H-pyrazol-3-yl)-N-((1R,3S)-3-methoxycyclopentyl)-5-methyl-2-(pyridin-2-yl)pyrrolo[2,1-f][1,2,4]triazin-4-amine]	0 (0 = 0% inhibition)
Cc1c(-c2ccn(C)n2)cn2nc(-c3nccn3C)nc(Nc3ncccn3)c12.Cl [Compound 115, 5-Methyl-2-(1-methyl-1H-imidazol-2-yl)-6-(1-methyl-1H-pyrazol-3-yl)-N-(pyrimidin-2-yl)pyrrolo[2,1-f][1,2,4]triazin-4-amine hydrochloride salt]	A (A = 1-25% inhibition)
Cc1c(-c2ccn(C3CC3)n2)cn2nc(-c3nccn3C)nc(Nc3cc(OC(F)(F)F)ccn3)c12 [Compound 138, 6-(1-Cyclopropyl-1H-pyrazol-3-yl)-5-methyl-2-(1-methyl-1H-imidazol-2-yl)-N-(4-(trifluoromethoxy)pyridin-2-yl)pyrrolo[2,1-f][1,2,4]triazin-4-amine]	A* (A* = 1-25% activation)
Cc1c(-c2ccn(C)n2)cn2nc(-c3nccn3C)nc(Cl)c12 [Compound 99, 4-Chloro-5-methyl-2-(1-methyl-1H-imidazol-2-yl)-6-(1-methyl-1H-pyrazol-3-yl)pyrrolo[2,1-f][1,2,4]triazine]	D (D = 76-100% inhibition)
